Our source for the IC50 values is patent US20230192720A1, “MACROCYCLIC COMPOUNDS” (ZENO MANAGEMENT, INC., priority 2019, published 2023).

The first assay has as its system NCI-H929 cells. As to the kind of experiment: NCI-H929 cell proliferation assay (CellTiter-Glo). Particulars: 72 h compound treatment. It counts as cell-based. As to the method:
NCI-H929 Cell Proliferation Assay
Cell proliferation was measured using the CellTiter-Glo® Luminescent Cell Viability Assay. The assay involved the addition of a single reagent (CellTiter-Glo® Reagent) directly to cells cultured in serum-supplemented medium. NCI-H929 (ATCC CRL-9068) cells were cultured according to ATCC recommendations and were seeded at 3,000 cells per well.
Each compound evaluated was prepared as a DMSO stock solution (10 mM). Compounds were tested in duplicate on each plate, with a 10-point serial dilution curve (1:3 dilution). Compound treatment ([…]) was added from the compound dilution plate to the cell plate. The highest compound concentration was 10 μM (final), with a 0.1% final DMSO concentration. Plates were then incubated at 37° C., 5% CO2. After 72 h of compound treatment, cell plates were equilibrated at rt for approximately 30 mins. An equi-volume amount of CellTiter-Glo® Reagent (40 μL) was added to each well. Plates were mixed for 2 mins on an orbital shaker to induce cell lysis and then incubated at rt for 10 mins to stabilize the luminescent signal. Luminescence was recorded using an Envision plate reader according to CellTiter-Glo protocol. IC50 of each compound was calculated using GraphPad Prism by nonlinear regression analysis.
In the case of `CCn1nc(C)c2c1CSCc1cc(n(C)n1)CSc1cc3c(c(c1)OCCCc1c(C(=O)O)n(C)c4c-2c(Cl)ccc14)NCCC3` (atropisomer, axis not shown; (Sa)) [Example 14B, (Sa)-(−)-(Z)-1^6-Chloro-2^1-ethyl-1^1,2^3,6^1-trimethyl-9^1,9^2,9^3,9^4-tetrahydro-1^1H,2^1H,6^1H-10-oxa-4,8-dithia-9(6,8)-quinolina-1(7,3)-indola-2(4,5),6(3,5)-dipyrazolacyclotridecaphane-1^2-carboxylic acid], the IC50 was at least 1000 nM. The same measure, in the same setting: the value for `Cc1nn(C23CC(C2)C3)c2c1-c1c(F)ccc3c(c(C(=O)O)n(C)c13)CCCOc1cc(cc3c1NCCC3)SCc1cc(nn1C)CSC2` (atropisomer, axis not shown; (Ra)) [Example 10A, (Ra)-(+)-(Z)-2^1-(Bicyclo[1.1.1]pentan-1-yl)-1^6-fluoro-1^1,2^3,6^1-trimethyl-9^1,9^2,9^3,9^4-tetrahydro-1^1H,2^1H,6^1H-10-oxa-4,8-dithia-9(6,8)-quinolina-1(7,3)-indola-2(4,5),6(3,5)-dipyrazolacyclotridecaphane-1^2-carboxylic acid] was at least 1000 nM; that for `CN1Cc2cc(n(C)n2)CSc2cc3c(c(c2)OCCCc2c(C(=O)O)n(C)c4c(c(Cl)ccc24)-c2c(nn4c2CCC4)C1)NCCC3` (atropisomer, axis not shown; (Ra)) [Example 3A, (Ra)-(+)-(Z)-1^6-Chloro-1^1,6^1,4-trimethyl-2^5,2^6,9^1,9^2,9^3,9^4-hexahydro-1^1H,2^4H,6^1H-10-oxa-8-thia-4-aza-9(6,8)-quinolina-1(7,3)-indola-2(3,2)-pyrrolo[1,2-b]pyrazola-6(3,5)-pyrazolacyclotridecaphane-1^2-carboxylic acid] was at least 1000 nM. As for `Cn1nc2cc1CSc1cc3c(c(c1)OCCCc1c(C(=O)O)n(C)c4c(c(Cl)ccc14)-c1c(nn4c1CCCC4)CNC2)NCCC3` (atropisomer, axis not shown; (Ra)) [Example 12A, (Ra)-(+)-(Z)-1^6-Chloro-1^1,6^1-dimethyl-2^4,2^5,2^6,2^7,9^1,9^2,9^3,9^4-octahydro-1^1H,6^1H-10-oxa-8-thia-4-aza-9(6,8)-quinolina-2(3,2)-pyrazolo[1,5-a]pyridina-1(7,3)-indola-6(3,5)-pyrazolacyclotridecaphane-1^2-carboxylic acid], the IC50 is at least 1000 nM. Same read-out and setting: the value for `CCn1nc(C)c2c1CSCc1cc(n(C)n1)CSc1cc3c(c(c1)OCCCc1c(C(=O)O)n(C)c4c-2c(Cl)ccc14)NCCC3` (atropisomer, axis not shown; (Ra)) [Example 14A, (Ra)-(+)-(Z)-1^6-Chloro-2^1-ethyl-1^1,2^3,6^1-trimethyl-9^1,9^2,9^3,9^4-tetrahydro-1^1H,2^1H,6^1H-10-oxa-4,8-dithia-9(6,8)-quinolina-1(7,3)-indola-2(4,5),6(3,5)-dipyrazolacyclotridecaphane carboxylic acid] was at most 100 nM; that for `Cn1nc2cc1CSc1cc3c(c(c1)OCCCc1c(C(=O)O)n(C)c4c(c(Cl)ccc14)-c1c(nn4c1CCCC4)CNC2)NCCC3` (atropisomer, axis not shown) [Example 12B, (Sa)-(−)-(Z)-1^6-Chloro-1^1,6^1-dimethyl-2^4,2^5,2^6,2^7,9^1,9^2,9^3,9^4-octahydro-1^1H,6^1H-10-oxa-8-thia-4-aza-9(6,8)-quinolina-2(3,2)-pyrazolo[1,5-a]pyridina-1(7,3)-indola-6(3,5)-pyrazolacyclotridecaphane-1^2-carboxylic acid] was 100 to 1000 nM. The same measure, in the same setting: the value for `Cc1nn(C23CC(C2)C3)c2c1-c1c(Cl)ccc3c(c(C(=O)O)n(C)c13)CCCOc1cc(cc3c1NCCC3)SCc1cc(nn1C)CSC2` (atropisomer, axis not shown; (Ra)) [Example 9A, (Ra)-(+)-(Z)-2^1-(Bicyclo [1.1.1]pentan-1-yl)-1^6-chloro-1^1,2^3,6^1-trimethyl-9^1,9^2,9^3,9^4-tetrahydro-1^1H,2^1H,6^1H-10-oxa-4,8-dithia-9(6,8)-quinolina-1(7,3)-indola-2(4,5),6(3,5)-dipyrazolacyclotridecaphane-1^2-carboxylic acid] was at least 1000 nM.

The molecule `CN1Cc2cc(n(C)n2)CCc2cc3c(c(c2)OCCCc2c(C(=O)O)n(C)c4c(c(Cl)ccc24)-c2c(nn4c2CCCC4)C1)NCCC3` (atropisomer, axis not shown; (Sa)) [Example 6B, (Sa)-(−)-(Z)-1^6-Chloro-1^1,6^1,4-trimethyl-2^4,2^5,2^6,2^7,9^1,9^2,9^3,9^4-octahydro-1^1H,6^1H-10-oxa-4-aza-9(6,8)-quinolina-2(3,2)-pyrazolo[1,5-a]pyridina-1(7,3)-indola-6(3,5)-pyrazolacyclotridecaphane-1^2-carboxylic acid] came in with an IC50 of at least 1000 nM. With `CN1Cc2cc(n(C)n2)CSc2cc3c(c(c2)OCCCc2c(C(=O)O)n(C)c4c(c(Cl)ccc24)-c2c(nn4c2CCC4)C1)NCCC3` (atropisomer, axis not shown; (Sa)) [Example 3B, (Sa)-(−)-(Z)-1^6-Chloro-1^1,6^1,4-trimethyl-2^5,2^6,9^1,9^2,9^3,9^4-hexahydro-1^1H,2^4H,6^1H-10-oxa-8-thia-4-aza-9(6,8)-quinolina-1(7,3)-indola-2(3,2)-pyrrolo[1,2-b]pyrazola-6(3,5)-pyrazolacyclotridecaphane-1^2-carboxylic acid], the IC50 was at most 100 nM. `CN1Cc2cc(n(C)n2)CSc2cc3c(c(c2)OCCCc2c(C(=O)O)n(C)c4c(c(Cl)ccc24)-c2c(nn4c2CCCC4)C1)NCCC3` (atropisomer, axis not shown; (Sa)) [Example 4B, (Sa)-(−)-(Z)-1^6-Chloro-1^1,6^1,4-trimethyl-2^4,2^5,2^6,2^7,9^1,9^2,9^3,9^4-octahydro-1^1H,6^1H-10-oxa-8-thia-4-aza-9(6,8)-quinolina-2(3,2)-pyrazolo[1,5-a]pyridina-1(7,3)-indola-6(3,5)-pyrazolacyclotridecaphane-1^2-carboxylic acid] showed an IC50 of at most 100 nM.

Still in this assay, the particulars now being: Homo sapiens, NCI-H929, 72 h, 72 h compound treatment.
As to `Cn1nc2cc1CSc1cc3c(c(c1)OCCCc1c(C(=O)O)n(C)c4c(c(Cl)ccc14)-c1c(nn4c1CCCC4)CSC2)NCCC3` (atropisomer, axis not shown; (Sa)) [Example 2B, (Sa)-(−)-(Z)-1^6-Chloro-1^1,6^1-dimethyl-2^4,2^5,2^6,2^7,9^1,9^2,9^3,9^4-octahydro-1^1H,6^1H-10-oxa-4,8-dithia-9(6,8)-quinolina-2(3,2)-pyrazolo[1,5-a]pyridina-1(7,3)-indola-6(3,5)-pyrazolacyclotridecaphane-1^2-carboxylic acid], the IC50 is at least 1000 nM. Still for that read-out and setting: the value for `CN1CCCc2cc3cc(c21)OCCCc1c(C(=O)O)n(C)c2c(c(Cl)ccc12)-c1c(nn2c1CCC2)CSCc1cc(n(C)n1)CS3` (atropisomer, axis not shown; (Ra)) [Example 13A, (Ra)-(+)-(Z)-1^6-Chloro-1^1,6^1,9^1-trimethyl-2^5,2^6,9^1,9^2,9^3,9^4-hexahydro-1^1H,2^4H,6^1H-10-oxa-4,8-dithia-9(6,8)-quinolina-1(7,3)-indola-2(3,2)-pyrrolo[1,2-b]pyrazola-6(3,5)-pyrazolacyclotridecaphane-1^2-carboxylic acid] was at least 1000 nM; that for `CO[C@H]1/C=C/C[C@H](C)[C@@H](C)S(=O)(=O)NC(=O)c2ccc3c(c2)N(C[C@@H]2CC[C@H]21)C[C@@]1(CCCc2cc(Cl)ccc21)CO3` [AMG176, reference compound] was 100 to 1000 nM; that for `Cc1c2c(nn1C)CSCc1cc(n(C)n1)CSc1cc(c3ccccc3c1)OCCCc1c(C(=O)O)n(C)c3c-2c(Cl)ccc13` [AZD5991, reference compound] was at most 100 nM.

As usually defined, the IC50 is the midpoint of a concentration-inhibition curve. The low end stands for higher potency, the high end for lower potency.
